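Interpolation was linear, between the two tested concentrations surrounding the appropriate level; five concentrations were tested over 48 hours in 96-well plates. GI50 is the concentration that inhibits growth by half. TGI: concentration producing complete growth inhibition.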
Columns and labels:
Assay in all cases: DTP human tumour cell line panel, 48 h
OVCAR-3 ovarian = test system: OVCAR-3 ovarian
SNB-19 CNS = test system: SNB-19 CNS
NCI-H23 lung = test system: NCI-H23 lung
SK-MEL-5 melanoma = test system: SK-MEL-5 melanoma
PC-3 prostate = test system: PC-3 prostate
HOP-62 NSCLC = test system: HOP-62 NSCLC
SR leukemia = test system: SR leukemia
OVCAR-8 ovarian = test system: OVCAR-8 ovarian
SK-MEL-28 melanoma = test system: SK-MEL-28 melanoma
MDA-MB-435 = test system: MDA-MB-435

| Structure (SMILES) | TGI (OVCAR-3 ovarian) [µM] | TGI (SNB-19 CNS) [µM] | TGI (NCI-H23 lung) [µM] | TGI (SK-MEL-5 melanoma) [µM] | TGI (PC-3 prostate) [µM] | TGI (HOP-62 NSCLC) [µM] | TGI (SR leukemia) [µM] | TGI (OVCAR-8 ovarian) [µM] | TGI (SK-MEL-28 melanoma) [µM] | TGI (MDA-MB-435) [µM] | GI50 (OVCAR-3 ovarian) [nM] | GI50 (SNB-19 CNS) [µM] | GI50 (NCI-H23 lung) [µM] | GI50 (SK-MEL-5 melanoma) [nM] | GI50 (PC-3 prostate) [nM] | GI50 (HOP-62 NSCLC) [nM] | GI50 (SR leukemia) [nM] | GI50 (OVCAR-8 ovarian) [µM] | GI50 (SK-MEL-28 melanoma) [nM] | GI50 (MDA-MB-435) [nM] |
| --- | --- | --- | --- | --- | --- | --- | --- | --- | --- | --- | --- | --- | --- | --- | --- | --- | --- | --- | --- | --- |
| COc1ccc(/C=C2\C=Cc3ccccc32)cc1OC | > 100 | > 100 | > 100 | > 100 | > 100 | > 100 | > 100 | > 100 | > 100 | > 100 |  |  |  |  |  |  |  |  |  |  |
| Cc1ccc(Nc2nc(=S)[nH]c3[nH]ncc23)cc1 | > 100 | > 100 | > 100 | > 100 | > 100 | > 100 | > 100 | > 100 | > 100 | > 100 |  |  |  |  |  |  |  |  |  |  |
| CN(C)c1nc(N(C)C)nc(N(C)C)n1 | > 143 | > 150 | > 143 | 136 | > 150 | > 142 | > 150 | > 150 | > 150 | > 150 |  |  |  |  |  |  |  |  |  |  |
| CSC(SC)=C1CC(=O)Nc2ccccc2C1=O | > 100 | > 100 | > 100 | > 100 | > 100 | > 100 | > 100 | > 100 | > 100 | > 100 |  |  |  |  |  |  |  |  |  |  |
| CCOC(=O)C1(C(=O)OCC)C[C@]23OCCC(=O)[C@H]2[C@H]2C(=O)OC(C)(C)O[C@]23C1 | > 100 | > 100 | > 100 | > 100 | > 100 | > 100 | > 100 | > 100 | > 100 | > 100 |  |  |  |  |  |  |  |  |  |  |
| CCc1ccc(-c2nnc(COc3ccc(-c4nc5ccc(C)cc5[nH]4)cc3OC)o2)cc1 | 4.49 | > 100 | 54.4 | 4.09 | > 100 | 6.46 | 5.22 | > 100 | 6.66 | 6.97 | 2230 | 4.63 | 4.52 | 1970 | 2960 | 2440 | 2080 | 5.08 | 2360 | 2510 |
| COc1cc(NS(C)(=O)=O)ccc1NCc1cnc2ccc3[nH]c(C)ccc3c12 | 91.9 | > 100 | > 100 | > 100 | > 100 | > 100 | 33.5 | > 100 | > 100 | 80.4 |  |  |  |  |  |  |  |  |  |  |
| CC(C)(C)OC(=O)[N+](=N)C(=O)C1CCC(=O)N1C(=O)OCc1ccccc1 (stereo not given) | > 100 | > 100 | > 100 | > 100 | > 100 | > 100 | > 100 | > 100 | > 100 | > 100 |  |  |  |  |  |  |  |  |  |  |
| C/C(=N/NC(=S)Nc1ccccc1Cl)c1ccccn1 | 10.9 | 48.5 | 32.8 | 8.67 | 27.3 | 12.4 | 3.22 | 9.18 | 23 | 17.1 |  |  |  |  |  |  |  |  |  |  |
| CC1=C(/C=C/C(C)=C/C=C/C(C)=C/C(=O)OCC2OC(n3cc(F)c(=O)[nH]c3=O)CC2OC(=O)/C=C(C)/C=C/C=C(C)/C=C/C2=C(C)CCCC2(C)C)C(C)(C)CCC1 (stereo not given) | > 39.5 | > 100 | > 90 | 19.8 | > 56.2 | > 27.9 | > 59.6 | > 66.7 | > 77.6 | > 65.8 |  |  |  |  |  |  |  |  |  |  |
| CCCCCCCCC[C@@H]1C[C@@H]2CCC3C(C(=O)OC)=C(C)NC(=N1)N32 (stereo not given in full) | 11.6 | 18.6 | 16.3 | 20.4 | 18.3 | 26.9 | > 100 | 23.7 | > 100 | 6.04 |  |  |  |  |  |  |  |  |  |  |
| Cc1ccc2c(c1)SSSSS2 | 40.5 | 48 | 43 | 35.8 | 57.8 | 38 | > 100 | 53.7 | 65.4 | 38.8 |  |  |  |  |  |  |  |  |  |  |
| CCOC(=O)CC(=O)NC1CC2CCC1(C)C2(C)C (stereo not given) | > 100 | > 100 | > 100 | > 100 | > 100 | > 100 | > 100 | > 100 | > 100 | > 100 |  |  |  |  |  |  |  |  |  |  |
| Cc1ccc(/C=C2\CN(C)CC3=C2OC(N)=C(C#N)C3c2ccc(C)cc2)cc1 (stereo not given) | 29.8 | 73.4 | 62.6 | > 100 | > 45.1 | 52.7 | > 100 | > 92 | > 71.5 | 34.7 |  |  |  |  |  |  |  |  |  |  |
| Brc1cccc(/C=C/CN2CCN(CCOC(c3ccccc3)c3ccccc3)CC2)c1 | 30.2 | 37.7 | 36.9 | 33.6 | 26.5 | 30.1 | 28.3 | 29.7 | 37.5 | 25.2 |  |  |  |  |  |  |  |  |  |  |
| OC1(c2ccccc2)CC2CCC(C1)N2CCc1ccccc1 (stereo not given) | > 100 | > 100 | > 100 | 28.6 | > 100 | > 100 | > 100 | > 100 | > 100 | > 100 |  |  |  |  |  |  |  |  |  |  |
| CN(C1=NCCO1)c1cccc2ccccc12 | > 10 | > 10 | > 10 | > 10 | > 10 | > 10 | > 10 | > 10 | > 10 | > 10 |  |  |  |  |  |  |  |  |  |  |
| C=C(O)c1ccccc1C#Cc1ccccc1C(=O)OC | > 10 | > 10 | > 10 | > 10 | > 10 | > 10 | > 10 | > 10 | > 10 | > 10 |  |  |  |  |  |  |  |  |  |  |
| C[C@]12CC[C@@H]3c4ccc(O)cc4CC[C@H]3[C@@H]1C/C(=C\c1ccc([N+](=O)[O-])cc1)C2=O | > 100 | > 100 | > 100 | > 100 | > 100 | > 100 | > 100 | > 100 | > 100 | > 100 |  |  |  |  |  |  |  |  |  |  |
| CCOC(=O)c1nc2cc(N3CCOCC3)c(F)cc2[nH]c1=O | > 100 | > 100 | > 100 | > 100 | > 100 | > 100 | > 100 | > 100 | > 100 | > 100 |  |  |  |  |  |  |  |  |  |  |

— PubChem BioAssay (NCI)
